This is an account of results in patent US20240044921A1, “METHOD FOR EVALUATING BLOOD COAGULATION PERFORMANCE, AND METHOD FOR INSPECTING RISK OF THROMBOSIS” (FUJIMORI KOGYO CO., LTD., priority 2020, published 2024).

This experiment deals with whole blood. Kind of experiment: ROTEM blood coagulation analysis, blood collection tube with rubber stopper, Example 3. The experiment is classed as cell-based, human. As to conditions: heparan sulfate 1 μg/mL with calcium chloride, CTI 20 μg/mL, PKSI-527 40 μM (reagent (2)). The method, then: The present invention will be more specifically described below by referring to Examples, but the present invention is not limited to the embodiments below. The blood samples used in the Examples were collected from healthy humans unless otherwise described.
ROTEM (IL) was used to analyze blood coagulation.
Blood was collected using a blood collection tube (2 mL) containing 3.2% sodium citrate manufactured by Becton, Dickinson and Company. A rubber stopper is used for this blood collection tube. […]

As for heparan sulfate, the “coagulation-promoting effect of the rubber stopper” value is “can be inhibited”.
